In ChEMBL document CHEMBL1759979, “Impact of aryloxy-linked quinazolines: a novel series of selective VEGFR-2 receptor tyrosine kinase inhibitors” (Bioorg Med Chem Lett, 2011):
pIC50: −log10 of the molar value.

Key:
MCF7 [1] = experiment: Antiproliferative activity against human MCF7 cells after 72 hrs by MTS assay; type: functional; design: concentration or dose not given beside the values
[2] = Antiproliferative activity against human EAhy926 cells after 72 hrs by MTS assay; type: functional, EA.hy 926; design: concentration or dose not given beside the values
PC-3 [3] = experiment: Antiproliferative activity against human PC3 cells after 72 hrs by MTS assay; type: functional; design: concentration or dose not given beside the values
HT-29 [4] = experiment: Antiproliferative activity against human HT-29 cells after 72 hrs by MTS assay; type: functional; design: concentration or dose not given beside the values
[5] = biological target: T1, Vascular endothelial growth factor receptor 2 (Homo sapiens, UniProt P35968); experiment: Inhibition of recombinant human VEGFR-2-mediated poly(Glu4Tyr) phosphorylation after 1 hr
[6] = biological target: Epidermal growth factor receptor (Homo sapiens, UniProt P00533); experiment: Inhibition of human EGFR-mediated poly(Glu4Tyr) phosphorylation after 1 hr
HT-29 [7] = experiment: Antiproliferative activity against human HT-29 cells at 10 uM after 72 hrs by MTS assay; type: functional, cell-based; conditions: HT-29, 72 h
PC-3 [8] = experiment: Antiproliferative activity against human PC3 cells at 10 uM after 72 hrs by MTS assay; type: functional, cell-based; conditions: PC-3, 72 h
MCF7 [9] = experiment: Antiproliferative activity against human MCF7 cells at 10 uM after 72 hrs by MTS assay; conditions: MCF7, 72 h
[10] = Antiproliferative activity against human EAhy926 cells at 10 uM after 72 hrs by MTS assay; type: functional, cell-based; conditions: EA.hy 926, 72 h
[11] = biological target: T1, Vascular endothelial growth factor receptor 2; experiment: Inhibition of KDR

T1 sequence (P35968 whole entry): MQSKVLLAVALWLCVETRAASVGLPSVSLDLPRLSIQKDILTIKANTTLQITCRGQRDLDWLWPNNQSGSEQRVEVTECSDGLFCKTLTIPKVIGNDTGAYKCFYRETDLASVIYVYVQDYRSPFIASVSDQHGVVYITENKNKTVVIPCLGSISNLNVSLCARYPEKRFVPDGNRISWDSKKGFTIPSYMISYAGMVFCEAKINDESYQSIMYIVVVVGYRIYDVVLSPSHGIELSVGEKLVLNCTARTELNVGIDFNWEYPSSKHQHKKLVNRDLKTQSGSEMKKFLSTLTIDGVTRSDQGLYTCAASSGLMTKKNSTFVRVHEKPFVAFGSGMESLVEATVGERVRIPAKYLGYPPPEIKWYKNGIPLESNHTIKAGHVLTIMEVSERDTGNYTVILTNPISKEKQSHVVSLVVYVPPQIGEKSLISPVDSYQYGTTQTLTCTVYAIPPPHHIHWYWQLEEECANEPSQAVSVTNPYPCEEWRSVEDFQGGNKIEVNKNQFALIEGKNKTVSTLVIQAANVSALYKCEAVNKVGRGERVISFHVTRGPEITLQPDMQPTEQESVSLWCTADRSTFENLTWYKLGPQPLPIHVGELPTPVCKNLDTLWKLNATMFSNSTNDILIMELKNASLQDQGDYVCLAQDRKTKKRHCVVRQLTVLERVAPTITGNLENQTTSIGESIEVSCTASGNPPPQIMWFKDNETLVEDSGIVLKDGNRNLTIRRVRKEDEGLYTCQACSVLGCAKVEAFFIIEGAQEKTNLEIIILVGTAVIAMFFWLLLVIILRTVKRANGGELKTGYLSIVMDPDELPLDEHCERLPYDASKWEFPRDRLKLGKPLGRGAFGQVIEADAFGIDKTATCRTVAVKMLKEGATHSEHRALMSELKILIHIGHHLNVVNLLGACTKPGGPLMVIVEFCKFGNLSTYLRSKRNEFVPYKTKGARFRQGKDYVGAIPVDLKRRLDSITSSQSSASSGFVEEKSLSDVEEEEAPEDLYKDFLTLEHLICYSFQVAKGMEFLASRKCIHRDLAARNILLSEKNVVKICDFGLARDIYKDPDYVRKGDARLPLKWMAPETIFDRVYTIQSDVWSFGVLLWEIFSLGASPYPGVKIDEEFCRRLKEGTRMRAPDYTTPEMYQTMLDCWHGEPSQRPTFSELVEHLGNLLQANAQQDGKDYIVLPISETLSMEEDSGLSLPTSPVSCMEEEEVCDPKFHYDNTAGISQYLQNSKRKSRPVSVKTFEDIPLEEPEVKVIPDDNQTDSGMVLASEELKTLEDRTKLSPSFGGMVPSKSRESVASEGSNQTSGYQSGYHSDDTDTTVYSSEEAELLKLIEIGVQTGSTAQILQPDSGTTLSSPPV
Sequence of Epidermal growth factor receptor (P00533 whole entry): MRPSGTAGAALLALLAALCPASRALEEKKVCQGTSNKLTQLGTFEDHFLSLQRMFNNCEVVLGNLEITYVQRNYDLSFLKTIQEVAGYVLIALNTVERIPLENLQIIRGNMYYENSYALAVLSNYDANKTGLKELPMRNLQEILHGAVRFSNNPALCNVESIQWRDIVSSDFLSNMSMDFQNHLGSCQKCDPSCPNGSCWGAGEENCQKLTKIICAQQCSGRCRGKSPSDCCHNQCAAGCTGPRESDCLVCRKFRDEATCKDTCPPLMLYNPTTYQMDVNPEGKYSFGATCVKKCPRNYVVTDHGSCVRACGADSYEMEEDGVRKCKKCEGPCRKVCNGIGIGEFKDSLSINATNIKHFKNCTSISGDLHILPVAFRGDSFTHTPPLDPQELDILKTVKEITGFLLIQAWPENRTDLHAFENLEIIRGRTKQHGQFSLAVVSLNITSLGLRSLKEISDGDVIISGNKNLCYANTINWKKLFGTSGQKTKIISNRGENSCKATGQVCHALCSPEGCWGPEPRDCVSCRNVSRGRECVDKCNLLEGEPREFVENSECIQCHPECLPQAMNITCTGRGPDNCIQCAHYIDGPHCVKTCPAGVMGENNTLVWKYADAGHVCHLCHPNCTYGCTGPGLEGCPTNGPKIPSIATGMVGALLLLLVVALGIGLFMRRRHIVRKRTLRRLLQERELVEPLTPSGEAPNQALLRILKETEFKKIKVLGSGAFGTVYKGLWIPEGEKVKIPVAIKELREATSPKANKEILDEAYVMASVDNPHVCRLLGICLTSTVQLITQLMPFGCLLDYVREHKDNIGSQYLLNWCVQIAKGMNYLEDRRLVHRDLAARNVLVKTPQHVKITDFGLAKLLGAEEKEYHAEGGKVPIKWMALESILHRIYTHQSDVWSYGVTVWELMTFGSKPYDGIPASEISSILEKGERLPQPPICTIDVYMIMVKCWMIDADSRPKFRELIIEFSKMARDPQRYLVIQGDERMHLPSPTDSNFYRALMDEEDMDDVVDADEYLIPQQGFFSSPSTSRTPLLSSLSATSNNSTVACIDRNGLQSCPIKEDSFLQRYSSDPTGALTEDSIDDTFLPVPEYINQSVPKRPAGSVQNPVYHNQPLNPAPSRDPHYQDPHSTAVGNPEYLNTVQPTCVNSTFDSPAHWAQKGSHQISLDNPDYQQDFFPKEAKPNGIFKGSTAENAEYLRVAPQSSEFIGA

SMILES	pIC50 [5]	pIC50 [6]	Activity (MCF7 [1]) [%]	Activity [2] [%]	Activity (PC-3 [3]) [%]	Activity (HT-29 [4]) [%]	further results
COc1cc2ncnc(N(C)c3cccc(NC(=O)Nc4ccccc4)c3)c2cc1OC	–	–	0	0	0	0	–
COc1ccc(NC(=O)Nc2cccc(N(C)c3ncnc4cc(OC)c(OC)cc34)c2)cc1	–	–	0	0	0	0	–
COc1cc2ncnc(Oc3ccc(NC(=O)Nc4ccccc4)cc3)c2cc1OC	7.22	< 5.00	12	15	23	12	–
COc1ccc(NC(=O)Nc2cccc(Oc3ncnc4cc(OC)c(OC)cc34)c2)cc1	–	< 5.00	–	–	–	–	–
COc1cc2ncnc(N(C)c3ccc(Br)cc3F)c2cc1OC	< 5.00	< 5.00	0	0	15	14	–
COc1cc2ncnc(Nc3ccc(NC(C)=O)cc3)c2cc1OC	< 5.00	< 5.00	12	0	2	0	–
COc1cc2ncnc(Oc3ccc(NC(C)=O)cc3)c2cc1OC	–	–	5	3	0	0	–
COC(=O)Nc1ccc(Oc2ncnc3cc(OC)c(OC)cc23)cc1	–	< 5.00	–	–	–	–	–
CCOC(=O)Nc1ccc(Oc2ncnc3cc(OC)c(OC)cc23)cc1	–	< 5.00	–	–	–	–	–
COc1ccc(NC(=O)Nc2ccc(Nc3ncnc4cc(OC)c(OC)cc34)cc2)cc1	–	< 5.00	–	–	–	–	–
COc1cc2ncnc(Oc3ccc(NC(=O)Nc4ccc(F)cc4F)cc3)c2cc1OC	–	< 5.00	–	–	–	–	–
COc1cc2ncnc(Oc3ccc(NC(=O)Nc4ccc(C(F)(F)F)cc4)cc3)c2cc1OC	–	< 5.00	–	–	–	–	–
COc1cc2ncnc(Oc3ccc(NC(=O)Nc4cccc5ccccc45)cc3)c2cc1OC	–	< 5.00	8	9	8	17	–
COc1cc2ncnc(Nc3ccc(NC(=O)Nc4ccc(F)c(Cl)c4)cc3)c2cc1OC	5.37	< 5.00	–	–	–	–	pIC50 (PC-3 [8]): 5.03; pIC50 (HT-29 [7]): 5.21; pIC50 (MCF7 [9]): 5.11; pIC50 [10]: 5.28
COc1cc2ncnc(N(C)c3ccc(NC(=O)Nc4ccc(F)c(Cl)c4)cc3)c2cc1OC	< 5.00	< 5.00	35	29	–	–	–
COc1ccc(NC(=O)Nc2ccc(Oc3ncnc4cc(OC)c(OC)cc34)cc2)cc1	7.15	< 5.00	0	24	12	9	pIC50 [11]: 7.15
COc1cc2ncnc(Oc3ccc(NC(=O)NC4CCCCC4)cc3)c2cc1OC	–	< 5.00	–	–	–	–	–
COc1cc2ncnc(Nc3cccc(Br)c3)c2cc1OC	–	–	–	–	40	–	pIC50 [10]: 5.15
COc1cc2ncnc(Nc3ccc(F)c(Cl)c3)c2cc1OC	5.28	–	–	–	–	–	pIC50 (PC-3 [8]): 5.19; pIC50 (HT-29 [7]): 5.24; pIC50 (MCF7 [9]): 5.31; pIC50 [10]: 5.35
COc1cc2ncnc(Oc3cccc(Br)c3)c2cc1OC	–	5.12	0	0	27	6	–
COc1cc2/c(=N/c3ccc(Br)cc3F)nc[nH]c2cc1OCC1CCN(C)CC1 [VANDETANIB]	–	–	26	–	33	–	pIC50 (HT-29 [7]): 5.38; pIC50 [10]: 5.29

The next lines start with results.

pIC50 [5]	pIC50 [6]	SMILES	Activity (MCF7 [1]) [%]	Activity [2] [%]	Activity (PC-3 [3]) [%]	Activity (HT-29 [4]) [%]	further results
–	< 5.00	COc1cc2ncnc(Oc3cccc(NC(=O)Nc4ccccc4)c3)c2cc1OC	–	–	–	–	–
5.78	5.24	COc1cc2ncnc(Nc3ccc(Br)cc3F)c2cc1OC	31	0	1	0	–
< 5.00	< 5.00	COc1cc2ncnc(N(C)c3ccc(F)c(Cl)c3)c2cc1OC	0	46	22	–	pIC50 (HT-29 [7]): 5.28
5.02	< 5.00	COc1cc2ncnc(Oc3ccc(F)c(Cl)c3)c2cc1OC	0	–	5	–	pIC50 (HT-29 [7]): 5.39
–	5.23	COc1cc2ncnc(Oc3ccc(Br)c(F)c3)c2cc1OC	–	–	–	–	–
5.24	–	COC(=O)Nc1ccc(Nc2ncnc3cc(OC)c(OC)cc23)cc1	27	0	2	10	–
5.25	< 5.00	CCOC(=O)Nc1ccc(Nc2ncnc3cc(OC)c(OC)cc23)cc1	6	0	12	16	–
–	< 5.00	COc1cc2ncnc(Nc3ccc(NC(=O)Nc4ccccc4)cc3)c2cc1OC	–	–	–	–	–
–	< 5.00	CCCCNC(=O)Nc1ccc(Oc2ncnc3cc(OC)c(OC)cc23)cc1	–	–	–	–	–
–	< 5.00	COc1cc2ncnc(Oc3ccc(NC(=O)Nc4ccc(Br)cc4)cc3)c2cc1OC	–	–	–	–	–
–	< 5.00	COc1cc2ncnc(Oc3ccc(NC(=O)Nc4ccc(F)c(Cl)c4)cc3)c2cc1OC	–	–	–	–	–
–	< 5.00	COc1cc2ncnc(Oc3ccc(NC(=O)Nc4ccc(C)cc4)cc3)c2cc1OC	23	42	23	17	–
–	< 5.00	COc1cc2ncnc(Oc3ccc(NC(=O)Nc4ccc5ccccc5c4)cc3)c2cc1OC	–	–	–	–	–
